Measurements published in ChEMBL document CHEMBL1201862, “PubChem BioAssay data set” (2004).
Activity calls are given as the source filed them.

Key:
HEK293 [1] = assay: cells; type: functional, cell-based; details: Homo sapiens
[2] = molecular target: Nucleotide-binding oligomerization domain-containing protein 2 (Homo sapiens, UniProt Q9HC29); assay: NOD2 signaling inhibitors, cell-based, luminescence, uHTS, HEK293 (AID 1566); type: functional
HEK293 [3] = assay: cells; type: functional, cell-based; details: Homo sapiens; remark: listed apart in the source
[4] = molecular target: Glycogen synthase kinase-3 beta (Homo sapiens, UniProt P49841); assay: Inhibition of Human GSK-3 beta Activity Measured in Biochemical System Using Microfluidics - 2063-05_Inhibitor_Dose_DryPowder_Activity. [Related pubchem assays (depositor defined):AID2709]
HEK293 [5] = assay: NOD1 signaling inhibitors, primary screen, cell-based, luminescence, uHTS (AID 1578); type: functional; details: Homo sapiens
HEK293 [6] = assay: cells; type: functional, cell-based; details: Homo sapiens; remark: listed apart in the source
HEK293 [7] = assay: NOD2 signaling inhibitors in MDP-stimulated cells, cell-based, uHTS, luminescence (AID 2001); type: functional; details: Homo sapiens
[8] = molecular target: UDP-galactopyranose mutase (Mycobacterium tuberculosis, UniProt P9WIQ1); assay: Inhibitors of Mycobacterium tuberculosis UDP-galactopyranose mutase (UGM) enzyme Measured in Biochemical System Using Plate Reader - 2105-02_Inhibitor_Dose_CherryPick_Activity. [Related pubchem assays (depositor defined):AID504439]
Cannabinoid receptor 2 [9] = molecular target: T1, Cannabinoid receptor 2 (Homo sapiens, UniProt P34972); assay: SAR analysis of antagonists of the Cannabinoid Receptor 2 using an Image-Based Assay - Set 2. [Related pubchem assays (depositor defined):AID1961, AID1965]; type: functional
Cannabinoid receptor 2 [10] = molecular target: T1, Cannabinoid receptor 2; assay: SAR analysis of agonists of the Cannabinoid Receptor 2 using an Image-Based Assay - Set 2. [Related pubchem assays (depositor defined):AID1961, AID1965]; type: functional
[11] = molecular target: T2, G-protein coupled receptor 55 (Homo sapiens, UniProt Q9Y2T6); assay: GPR55 agonists via beta-arrestin recruitment, primary screen, imaging, U2OS cells, beta-arrestin-GFP redistribution (AID 1961); type: functional
[12] = molecular target: T2, G-protein coupled receptor 55; assay: SAR analysis of selective Agonists of GPR55 using an Image-Based Assay. [Related pubchem assays (depositor defined):AID1961, AID1965]; type: functional
Cannabinoid receptor 1 = Cannabinoid receptor 1 (Homo sapiens, UniProt P21554); assay: SAR analysis of antagonists of the Cannabinoid Receptor 1 using an Image-Based Assay. [Related pubchem assays (depositor defined):AID1961, AID1965]; type: functional
[13] = molecular target: T3, Rac GTPase-activating protein 1 (Homo sapiens, UniProt Q9H0H5); assay: MgcRacGAP GTPase-activating activity inhibitors, confirmation, biochemical, ADP Hunter fluorescence, primary and confirmatory (AID 624330); type: functional
T3 sequence (Q9H0H5 whole entry): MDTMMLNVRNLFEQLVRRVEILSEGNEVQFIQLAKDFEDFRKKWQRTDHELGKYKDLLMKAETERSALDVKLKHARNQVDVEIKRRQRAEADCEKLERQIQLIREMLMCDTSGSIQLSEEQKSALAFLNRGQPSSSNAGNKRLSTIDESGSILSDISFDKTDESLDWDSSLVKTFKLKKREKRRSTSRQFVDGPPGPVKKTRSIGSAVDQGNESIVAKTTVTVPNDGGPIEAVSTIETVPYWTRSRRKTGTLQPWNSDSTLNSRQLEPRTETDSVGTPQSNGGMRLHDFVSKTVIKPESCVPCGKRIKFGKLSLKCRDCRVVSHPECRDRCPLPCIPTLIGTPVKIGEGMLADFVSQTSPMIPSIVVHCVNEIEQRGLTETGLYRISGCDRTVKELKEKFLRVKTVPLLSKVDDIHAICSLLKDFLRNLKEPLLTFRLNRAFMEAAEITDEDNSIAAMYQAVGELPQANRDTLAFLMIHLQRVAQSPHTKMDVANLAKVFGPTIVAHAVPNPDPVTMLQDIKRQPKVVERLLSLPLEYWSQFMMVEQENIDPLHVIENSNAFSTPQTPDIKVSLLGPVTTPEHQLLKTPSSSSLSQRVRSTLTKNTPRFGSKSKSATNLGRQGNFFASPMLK

[14] = molecular target: 26S proteasome non-ATPase regulatory subunit 14 (Homo sapiens, UniProt O00487); assay: inhibition of proteasome subunit RPN11 – biochemical, fluorescence polarization, uHTS hits, confirmation (AID 602368); type: functional
[15] = molecular target: T4, Alkaline phosphatase, tissue-nonspecific isozyme (Homo sapiens, UniProt P05186); assay: TNAP enzyme activators, dose response, selectivity assay for mouse IAP activator project, biochemical, TNAP isozyme, mouse IAP uHTS hits (AID 488880); type: functional
T4 sequence (P05186 whole entry): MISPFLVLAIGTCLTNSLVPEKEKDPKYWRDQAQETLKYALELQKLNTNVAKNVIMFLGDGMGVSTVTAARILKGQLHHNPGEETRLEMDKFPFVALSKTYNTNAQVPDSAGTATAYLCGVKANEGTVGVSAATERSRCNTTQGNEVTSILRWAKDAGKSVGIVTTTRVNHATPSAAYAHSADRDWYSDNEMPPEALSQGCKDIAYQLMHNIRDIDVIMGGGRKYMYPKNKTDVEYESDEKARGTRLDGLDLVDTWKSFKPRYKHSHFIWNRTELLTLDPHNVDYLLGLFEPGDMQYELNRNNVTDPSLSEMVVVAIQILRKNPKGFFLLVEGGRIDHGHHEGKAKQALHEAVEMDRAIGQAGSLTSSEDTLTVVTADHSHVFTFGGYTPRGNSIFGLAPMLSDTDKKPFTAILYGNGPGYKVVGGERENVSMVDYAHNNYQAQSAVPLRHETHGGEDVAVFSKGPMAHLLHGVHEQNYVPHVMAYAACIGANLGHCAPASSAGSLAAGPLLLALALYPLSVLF

[16] = molecular target: Intestinal-type alkaline phosphatase (Mus musculus, UniProt P24822); assay: mouse intestinal alkaline phosphatase activators, dose response, biochemical, luminescence, uHTS hits (AID 488783); type: functional
[17] = molecular target: Intestinal-type alkaline phosphatase (Homo sapiens, UniProt P09923); assay: activation of human intestinal alkaline phosphatase – biochemical, dose response (AID 488873); type: functional
[18] = molecular target: 72 kDa type IV collagenase (Homo sapiens, UniProt P08253); assay: Dose Response validation of uHTS RPN11 inhibitor hits using a MMP-2 Fluorescence assay.; type: functional
Prothrombin = Prothrombin (Bos taurus, UniProt P00735); assay: thrombin inhibition, dose response, biochemical, fluorescence polarization, uHTS hits (AID 602369); type: functional
[19] = enhancers of respiration in Yfh1-depleted yeast, dose response, Friedreich's ataxia, plus single-dose screen (AID 1465); type: functional;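 further: yeast depleted of Yfh1p frataxin homolog grown on glycerol needing respiration; WST-1 tetrazolium dye reduction as measure of cellular dehydrogenase metabolic activity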
[20] = blockers of SFLLRN-triggered platelet ATP secretion – cell-based, human platelets, luminescence, dry powder, dose response (AID 493100); type: functional
[21] = Luminescence Cell-Based Dose Response Follow up to Identify Inhibitors of Platelet Dense Granule Release. [Related pubchem assays (depositor defined):AID1663, AID1678, AID1889, AID2519]; type: functional

T1 sequence (P34972 whole entry): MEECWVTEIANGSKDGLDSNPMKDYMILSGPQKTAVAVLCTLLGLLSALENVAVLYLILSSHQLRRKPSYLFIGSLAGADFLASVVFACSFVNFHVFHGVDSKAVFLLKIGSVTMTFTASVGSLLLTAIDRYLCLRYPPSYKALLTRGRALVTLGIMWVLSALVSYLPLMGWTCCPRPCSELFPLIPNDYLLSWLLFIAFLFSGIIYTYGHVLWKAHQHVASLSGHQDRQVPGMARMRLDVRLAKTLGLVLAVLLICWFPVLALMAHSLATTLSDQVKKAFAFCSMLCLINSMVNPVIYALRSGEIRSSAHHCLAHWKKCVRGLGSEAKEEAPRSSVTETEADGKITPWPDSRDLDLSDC
T2 sequence (Q9Y2T6 whole entry): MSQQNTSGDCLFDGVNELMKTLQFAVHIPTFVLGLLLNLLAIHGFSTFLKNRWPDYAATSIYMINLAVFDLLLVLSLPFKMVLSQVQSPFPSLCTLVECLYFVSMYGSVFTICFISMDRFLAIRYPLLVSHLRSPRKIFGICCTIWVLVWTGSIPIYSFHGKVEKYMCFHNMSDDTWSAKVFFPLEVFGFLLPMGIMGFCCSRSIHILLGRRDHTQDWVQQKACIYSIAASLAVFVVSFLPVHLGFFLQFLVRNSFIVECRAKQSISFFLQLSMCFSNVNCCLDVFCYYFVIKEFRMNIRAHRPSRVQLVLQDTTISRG
Chain of 26S proteasome non-ATPase regulatory subunit 14 (O00487 whole entry): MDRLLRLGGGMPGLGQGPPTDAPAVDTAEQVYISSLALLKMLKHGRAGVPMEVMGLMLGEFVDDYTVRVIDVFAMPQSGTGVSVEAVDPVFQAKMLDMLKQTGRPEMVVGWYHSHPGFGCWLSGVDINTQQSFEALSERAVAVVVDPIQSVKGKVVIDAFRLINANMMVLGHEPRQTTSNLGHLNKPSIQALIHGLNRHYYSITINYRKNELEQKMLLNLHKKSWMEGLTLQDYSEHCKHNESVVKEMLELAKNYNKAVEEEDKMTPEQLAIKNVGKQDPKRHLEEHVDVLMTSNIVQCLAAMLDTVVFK
Chain of UDP-galactopyranose mutase (P9WIQ1 whole entry): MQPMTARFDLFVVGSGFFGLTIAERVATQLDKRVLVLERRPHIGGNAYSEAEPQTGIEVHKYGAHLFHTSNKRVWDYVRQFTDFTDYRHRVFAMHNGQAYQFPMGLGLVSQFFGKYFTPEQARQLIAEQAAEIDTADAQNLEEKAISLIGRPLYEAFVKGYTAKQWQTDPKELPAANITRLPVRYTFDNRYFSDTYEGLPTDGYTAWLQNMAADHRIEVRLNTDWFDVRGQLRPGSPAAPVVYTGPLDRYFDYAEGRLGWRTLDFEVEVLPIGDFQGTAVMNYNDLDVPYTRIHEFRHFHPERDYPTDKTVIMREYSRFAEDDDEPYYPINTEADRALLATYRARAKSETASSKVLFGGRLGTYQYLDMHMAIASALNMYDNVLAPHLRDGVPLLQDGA
Chain of Cannabinoid receptor 1 (P21554 whole entry): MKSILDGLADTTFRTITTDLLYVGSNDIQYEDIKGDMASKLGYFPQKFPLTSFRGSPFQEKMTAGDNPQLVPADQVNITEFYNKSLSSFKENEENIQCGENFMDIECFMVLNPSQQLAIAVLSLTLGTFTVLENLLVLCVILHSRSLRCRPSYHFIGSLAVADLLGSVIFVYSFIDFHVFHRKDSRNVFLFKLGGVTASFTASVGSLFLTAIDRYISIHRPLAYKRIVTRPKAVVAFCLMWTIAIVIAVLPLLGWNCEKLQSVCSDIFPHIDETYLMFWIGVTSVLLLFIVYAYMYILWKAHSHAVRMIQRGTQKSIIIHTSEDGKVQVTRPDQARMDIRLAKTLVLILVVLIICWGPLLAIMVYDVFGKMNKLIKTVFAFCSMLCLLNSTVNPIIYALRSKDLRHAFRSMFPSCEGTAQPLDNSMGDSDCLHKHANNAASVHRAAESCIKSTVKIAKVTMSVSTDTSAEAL
Chain of Intestinal-type alkaline phosphatase (Mus musculus, UniProt P24822) (P24822 whole entry): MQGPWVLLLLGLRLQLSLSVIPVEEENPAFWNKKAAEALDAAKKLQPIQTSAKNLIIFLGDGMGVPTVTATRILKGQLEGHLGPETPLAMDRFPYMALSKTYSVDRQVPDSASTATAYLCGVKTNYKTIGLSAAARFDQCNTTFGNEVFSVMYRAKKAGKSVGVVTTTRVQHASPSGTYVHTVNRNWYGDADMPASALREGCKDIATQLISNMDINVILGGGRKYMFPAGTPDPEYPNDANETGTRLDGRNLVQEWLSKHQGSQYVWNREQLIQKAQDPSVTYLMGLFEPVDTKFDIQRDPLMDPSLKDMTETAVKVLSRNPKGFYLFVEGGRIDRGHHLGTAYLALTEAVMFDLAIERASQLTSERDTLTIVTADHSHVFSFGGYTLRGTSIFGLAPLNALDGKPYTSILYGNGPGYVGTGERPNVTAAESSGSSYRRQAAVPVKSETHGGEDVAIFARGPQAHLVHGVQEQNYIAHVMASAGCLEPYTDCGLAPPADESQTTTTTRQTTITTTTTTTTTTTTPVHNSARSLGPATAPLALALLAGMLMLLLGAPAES
Chain of Intestinal-type alkaline phosphatase (Homo sapiens, UniProt P09923) (P09923 whole entry): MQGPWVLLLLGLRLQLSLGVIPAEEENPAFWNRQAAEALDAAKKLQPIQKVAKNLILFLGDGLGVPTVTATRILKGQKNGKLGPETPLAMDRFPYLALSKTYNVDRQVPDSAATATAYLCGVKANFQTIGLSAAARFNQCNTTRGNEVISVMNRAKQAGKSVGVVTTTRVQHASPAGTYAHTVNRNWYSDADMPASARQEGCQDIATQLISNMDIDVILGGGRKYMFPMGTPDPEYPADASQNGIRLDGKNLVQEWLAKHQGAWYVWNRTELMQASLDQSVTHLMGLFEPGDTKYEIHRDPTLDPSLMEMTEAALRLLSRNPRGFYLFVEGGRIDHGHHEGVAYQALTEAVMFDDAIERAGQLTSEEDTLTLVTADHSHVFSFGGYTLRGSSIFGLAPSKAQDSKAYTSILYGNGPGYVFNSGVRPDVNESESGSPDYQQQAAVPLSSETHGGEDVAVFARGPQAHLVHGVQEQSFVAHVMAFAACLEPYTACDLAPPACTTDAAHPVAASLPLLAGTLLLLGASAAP
Chain of Nucleotide-binding oligomerization domain-containing protein 2 (Q9HC29 whole entry, the tested form may be a part): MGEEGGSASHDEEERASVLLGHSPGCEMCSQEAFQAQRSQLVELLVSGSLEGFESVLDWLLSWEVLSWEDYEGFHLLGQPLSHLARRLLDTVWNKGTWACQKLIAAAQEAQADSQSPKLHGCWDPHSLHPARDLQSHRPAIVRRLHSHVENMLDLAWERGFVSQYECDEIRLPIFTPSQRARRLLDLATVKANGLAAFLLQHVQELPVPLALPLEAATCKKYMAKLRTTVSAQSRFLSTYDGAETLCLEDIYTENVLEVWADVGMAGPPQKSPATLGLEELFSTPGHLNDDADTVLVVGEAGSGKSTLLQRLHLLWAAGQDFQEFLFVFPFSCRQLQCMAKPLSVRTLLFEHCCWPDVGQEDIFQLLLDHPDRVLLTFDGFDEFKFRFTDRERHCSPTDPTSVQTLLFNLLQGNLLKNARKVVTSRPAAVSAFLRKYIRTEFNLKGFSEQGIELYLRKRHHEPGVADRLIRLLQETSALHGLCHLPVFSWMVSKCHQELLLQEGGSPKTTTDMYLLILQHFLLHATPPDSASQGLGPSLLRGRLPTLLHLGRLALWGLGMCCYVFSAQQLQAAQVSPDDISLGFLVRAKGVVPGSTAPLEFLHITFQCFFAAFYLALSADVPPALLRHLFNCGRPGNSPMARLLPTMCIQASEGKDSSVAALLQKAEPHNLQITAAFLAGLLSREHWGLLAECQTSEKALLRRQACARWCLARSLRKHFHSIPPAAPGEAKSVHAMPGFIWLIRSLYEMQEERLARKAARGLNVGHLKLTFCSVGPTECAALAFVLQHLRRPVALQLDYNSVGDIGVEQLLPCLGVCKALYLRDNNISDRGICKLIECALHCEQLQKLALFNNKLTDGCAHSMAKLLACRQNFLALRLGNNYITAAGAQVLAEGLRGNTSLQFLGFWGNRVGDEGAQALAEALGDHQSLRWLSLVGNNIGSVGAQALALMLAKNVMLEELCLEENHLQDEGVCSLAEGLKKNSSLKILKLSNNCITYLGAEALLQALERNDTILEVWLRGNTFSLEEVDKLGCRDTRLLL
Chain of Glycogen synthase kinase-3 beta (P49841 whole entry): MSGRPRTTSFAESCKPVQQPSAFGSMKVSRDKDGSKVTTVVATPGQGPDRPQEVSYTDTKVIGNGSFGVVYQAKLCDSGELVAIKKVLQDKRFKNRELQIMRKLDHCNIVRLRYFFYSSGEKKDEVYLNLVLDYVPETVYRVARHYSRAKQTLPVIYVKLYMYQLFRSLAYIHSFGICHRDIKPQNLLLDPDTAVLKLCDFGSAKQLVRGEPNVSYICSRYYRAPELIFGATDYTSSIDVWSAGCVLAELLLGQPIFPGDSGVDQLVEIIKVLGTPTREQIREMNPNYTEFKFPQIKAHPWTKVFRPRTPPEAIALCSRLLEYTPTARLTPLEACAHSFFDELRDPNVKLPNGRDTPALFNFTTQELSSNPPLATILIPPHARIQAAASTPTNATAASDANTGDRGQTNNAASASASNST

Cc1ccc(-n2c(C)c([N+](=O)[O-])c3ccc(O)cc32)cc1
IC50 (HEK293 [1]): > 20 µM (inactive)
EC50 [2]: > 20 µM (inactive)
IC50 (HEK293 [3]): 1.05 µM (active)
AC50 [4]: < 0.068 µM (active)
EC50 (HEK293 [5]): 16 µM (active)
IC50 (HEK293 [6]): > 20 µM (inactive)
IC50 (HEK293 [7]): 1.18 µM (active)

CCCCCCN1C=CC=C/C1=C\C=C(C#N)C#N
AC50 [8]: 44.1 µM (active)

O=C(CSc1nc2ccccc2s1)N1c2ccccc2Sc2ccc(Cl)cc21
IC50 (Cannabinoid receptor 2 [9]): > 32 µM (inactive)
EC50 (Cannabinoid receptor 2 [10]): 0.0905 µM (active)
EC50 [11]: 0.84 µM (active)
EC50 [12]: 0.748 µM (active)
IC50 (Cannabinoid receptor 1): > 32 µM (inactive)

Cc1cc(/C=C2\SC(=S)NC2=O)c(C)[nH]1
IC50 [13]: 207 µM (active)
IC50 [14]: 26.5 µM (active)
EC50 [15]: 58.1 µM (active)
EC50 [16]: 56.6 µM (active)
EC50 [17]: 68 µM (active)
IC50 [18]: 20.4 µM (active)
IC50 (Prothrombin): 33 µM (active)
EC50 [19]: > 100 µM (active)

O=C(Nc1ccccc1)c1ccccc1Br
AC50 [20]: 5.98 µM (active)
EC50 [21]: 1.97 µM (active)
